Earlier results as cited in patent US20090148502A1, “COMPOSITIONS AND METHODS FOR TREATING LACERATIONS, ABRASIONS, AVULSIONS, BURNS, ULCERS, AND CASES OF EXCESSIVE BLEEDING” (Hemo Nanoscience, LLC, priority 2006, published 2009).

Tests used:
[1] = in vivo
wound = details: 0.04% (wt/wt), topically applied

| Compound | duration of action [1] [h] | effect on healing time (wound) |
| --- | --- | --- |
| CCCCN1CCCCC1C(=O)Nc1c(C)cccc1C (centres unmarked) [bupivacaine] | 6 to 8 |  |
| Human EGF: human epidermal growth factor |  | successful in reducing the healing time |
